From patent publication US12351616B2, “Peptides and combination of peptides for use in immunotherapy against esophageal cancer and other cancers” (Immatics Biotechnologies GmbH, priority 2015, dated 2025)

Key:
CD8+ T cells = experiment: In vitro T-cell priming assay with aAPCs loaded with peptide/MHC and anti-CD28, pMHC multimer readout; assay type: cell-based, human; details: Table 10B
Source text: In order to obtain information regarding the immunogenicity of the TUMAPs of the present invention, the inventors performed investigations using an in vitro T-cell priming assay based on repeated stimulations of CD8+ T cells with artificial antigen presenting cells (aAPCs) loaded with peptide/MHC complexes and anti-CD28 antibody.
In order to perform in vitro stimulations by artificial antigen presenting cells loaded with peptide-MHC complex (pMHC) and anti-CD28 antibody, the inventors first isolated CD8+ T cells from fresh HLA-A*02 leukapheresis products via positive selection using CD8 microbeads (Miltenyi Biotec, Bergisch-Gladbach, Germany) of healthy donors obtained from the University clinics Mannheim, Germany, after informed consent.
PBMCs and isolated CD8+ lymphocytes were incubated in T-cell medium (TCM) until use consisting of RPMI-Glutamax (Invitrogen, Karlsruhe, Germany) supplemented with 10% heat inactivated human AB serum (PAN-Biotech, Aidenbach, Germany), 100 U/ml Penicillin/100 μg/ml Streptomycin (Cambrex, Cologne, Germany), 1 mM sodium pyruvate (CC Pro, Oberdorla, Germany), 20 μg/ml Gentamycin (Cambrex). 2.5 ng/ml IL-7 (PromoCell, Heidelberg, Germany) and 10 U/ml IL-2 (Novartis Pharma, Nurnberg, Germany) were also added to the TCM at this step.
Generation of pMHC/anti-CD28 coated beads, T-cell stimulations and readout was performed in a highly defined in vitro system using four different pMHC molecules per stimulation condition and 8 different pMHC molecules per readout condition.
The purified co-stimulatory mouse IgG2a anti human CD28 Ab 9.3 (Jung et al., 1987) was chemically biotinylated using Sulfo-N-hydroxysuccinimidobiotin as recommended by the manufacturer (Perbio, Bonn, Germany). Beads used were 5.6 μm diameter streptavidin coated polystyrene particles (Bangs Laboratories, Illinois, USA).
800.000 beads/200 μl were coated in 96-well plates in the presence of 4×12.5 ng different biotin-pMHC, washed and 600 ng biotin anti-CD28 were added subsequently in a volume of 200 μl. Stimulations were initiated in 96-well plates by co-incubating 1×10^6 CD8+ T cells with 2×10^5 washed coated beads in 200 μl TCM supplemented with 5 ng/ml IL-12 (PromoCell) for 3 days at 37° C. Half of the medium was then exchanged by fresh TCM supplemented with 80 U/ml IL-2 and incubating was continued for 4 days at 37° C. This stimulation cycle was performed for a total of three times. For the pMHC multimer readout using 8 different pMHC molecules per condition, a two-dimensional combinatorial coding approach was used as previously described (Andersen et al., 2012) with minor modifications encompassing coupling to 5 different fluorochromes. Finally, multimeric analyses were performed by staining the cells with Live/dead near IR dye (Invitrogen, Karlsruhe, Germany), CD8-FITC antibody clone SK1 (BD, Heidelberg, Germany) and fluorescent pMHC multimers. For analysis, a BD LSRII SORP cytometer equipped with appropriate lasers and filters was used. Peptide specific cells were calculated as percentage of total CD8+ cells. Evaluation of multimeric analysis was done using the FlowJo software (Tree Star, Oregon, USA). In vitro priming of specific multimer+CD8+ lymphocytes was detected by comparing to negative control stimulations.

HLA-A*02:01 = HLA-A*02:01 (Homo sapiens, UniProt P04439, D140Y/D185E/D98H/E176V/E277Q/G131W/G231S/I119V/I121R/I166T/I218V/L300P/L318F/N151K/N90K/P208A/P217A/Q86G/Q94H/R138H/R169H/T345S); experiment: MHC binding assay: UV-ligand exchange with β2m ELISA; details: peptide exchange yield, binding to HLA-A*02:01
Source text: Candidate peptides for T cell based therapies according to the present invention were further tested for their MHC binding capacity (affinity). The individual peptide-MHC complexes were produced by UV-ligand exchange, where a UV-sensitive peptide is cleaved upon UV-irradiation, and exchanged with the peptide of interest as analyzed. Only peptide candidates that can effectively bind and stabilize the peptide-receptive MHC molecules prevent dissociation of the MHC complexes. To determine the yield of the exchange reaction, an ELISA was performed based on the detection of the light chain (β2m) of stabilized MHC complexes. The assay was performed as generally described in Rodenko et al. (Rodenko et al., 2006).
96 well MAXISorp plates (NUNC) were coated over night with 2 ug/ml streptavidin in PBS at room temperature, washed 4× and blocked for 1 h at 37° C. in 2% BSA containing blocking buffer. Refolded HLA-A*02:01/MLA-001 monomers served as standards, covering the range of 15-500 ng/ml. Peptide-MHC monomers of the UV-exchange reaction were diluted 100 fold in blocking buffer. Samples were incubated for 1 h at 37° C., washed four times, incubated with 2 ug/ml HRP conjugated anti-β2m for 1 h at 37° C., washed again and detected with TMB solution that is stopped with […]. Absorption was measured at 450 nm. Candidate peptides that show a high exchange yield (preferably higher than 50%, most preferred higher than 75%) are generally preferred for a generation and production of antibodies or fragments thereof, and/or T cell receptors or fragments thereof, as they show sufficient avidity to the MHC molecules and prevent dissociation of the MHC complexes.

Substance | Peptide exchange (HLA-A*02:01) | Wells positive [%] (CD8+ T cells)
1 (STYGGGLSV; listed as Homo sapiens) [compound 1] | +++ (≥50 = +++) | + (<20% = +)
2 (SLYNLGGSKRISI; listed as Homo sapiens) [compound 2] | ++++ (≥75% = ++++) | + (<20% = +)

The next lines start with results.

Peptide exchange (HLA-A*02:01) | Substance | Wells positive [%] (CD8+ T cells)
++++ (≥75% = ++++) | 47 (VLASGFLTV; listed as Homo sapiens) [compound 47] | +++ (50%-69% = +++)
+++ (≥50 = +++) | 69 (GLLVGSEKVTM; listed as Homo sapiens) [compound 69] | + (<20% = +)
+++ (≥50 = +++) | 29 (SLDGTELQL; listed as Homo sapiens) [compound 29] | + (<20% = +)
